According to PubChem BioAssay (NCI):
Values joined by “and” are separate entries in the source; they are usually repeats but may differ in a detail not shown here. Equal entries are not always repeated.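 Assay format: 96-well plates, 48-hour exposure. GI50: concentration for 50% inhibition of growth. The concentration for full growth arrest is given as TGI.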

How the values were obtained:
Test in all cases: NCI anticancer screen, dose series, 48 h
[1] = tested on: NCI-H460 lung
[2] = tested on: MCF7 breast
[3] = tested on: DU-145 prostate
[4] = tested on: OVCAR-5 ovarian
[5] = tested on: SR leukemia
[6] = tested on: HOP-92 NSCLC
[7] = tested on: SF-539 CNS
[8] = tested on: SK-OV-3 ovarian
[9] = tested on: SNB-19 CNS
[10] = tested on: RXF 393 renal

CCCCCCCCCCCCCC[n+]1ccccc1
GI50 [1]: 1.22 µM
TGI [1]: 2.73 µM
GI50 [2]: 0.489 µM
TGI [2]: 2.66 µM
GI50 [3]: 1.17 µM
TGI [3]: 2.85 µM
GI50 [4]: 0.733 µM
TGI [4]: 2.35 µM
GI50 [5]: 0.499 µM
TGI [5]: 2.94 µM
GI50 [6]: 0.144 µM
TGI [6]: 0.841 µM
GI50 [7]: 1.28 µM
TGI [7]: 2.6 µM
GI50 [8]: 1.45 µM
TGI [8]: 4.26 µM

O=c1cc(-c2ccccc2)[nH]c2ncccc12
TGI [1]: > 52.1 µM
TGI [2]: > 100 µM
TGI [3]: > 100 µM
TGI [9]: > 100 µM
TGI [4]: > 100 µM
TGI [6]: 7.54 µM
TGI [8]: 1.89 µM

N#CCCN(CCC#N)c1ccc(/C=C(/NC(=O)c2cc([N+](=O)[O-])ccc2Cl)C(=O)NN)cc1
TGI [1]: > 100 µM
TGI [10]: > 100 µM
TGI [9]: > 100 µM
TGI [4]: > 100 µM
TGI [5]: > 100 µM
TGI [7]: > 100 µM
TGI [8]: > 100 µM

[O-]/N=[N+](/[O-])C1CCCCC1=[N+]1CCOCC1 (stereo not given)
TGI [1]: > 100 µM
TGI [9]: > 100 µM
TGI [4]: > 100 µM
TGI [5]: > 100 µM
TGI [6]: > 100 µM
TGI [8]: > 100 µM

COc1cc(CC(C)=O)cc(OC)c1
TGI [1]: > 100 µM
TGI [2]: > 100 µM
TGI [3]: > 100 µM
TGI [9]: > 100 µM
TGI [4]: > 100 µM
TGI [5]: 85.4 µM
TGI [6]: > 100 µM
TGI [8]: > 100 µM

COC(=O)Oc1nn(C(=O)OC)c(=O)c2ccccc12
TGI [2]: > 100 µM
TGI [3]: > 100 µM
TGI [9]: > 100 µM
TGI [4]: > 100 µM
TGI [5]: > 100 µM
TGI [7]: > 100 µM
TGI [8]: > 100 µM

OCC1OC2c3ccccc3COC2C1OCc1ccccc1 (stereo not given)
TGI [1]: > 100 µM
TGI [10]: > 100 µM
TGI [9]: > 100 µM
TGI [4]: > 100 µM
TGI [5]: > 100 µM
TGI [8]: > 100 µM

CN(C)C1CCN(Cc2ccc(NC(=O)c3cncc(C#Cc4cnc(N)c5ncccc45)c3)cc2C(F)(F)F)CC1
GI50 [1]: 1.12 µM
TGI [1]: 2.5 µM
GI50 [3]: 0.904 µM
TGI [3]: 1.72 µM
GI50 [10]: 1.9 µM
TGI [10]: 7.67 µM
GI50 [9]: 10 µM
TGI [9]: 21.2 µM
GI50 [4]: 8.21 µM
TGI [4]: 15.6 µM
GI50 [5]: 2.05 µM
TGI [5]: 50 µM
GI50 [6]: 2.77 µM
TGI [6]: 11.3 µM
GI50 [7]: 2.13 µM
TGI [7]: 8.98 µM

COc1cc2c(c(O)c1Cl)C(=O)c1c(O)cc(C[C@H](C)O)cc1[C@H]2[C@H]1c2cc(C[C@H](C)O)cc(O)c2C(=O)c2c1cc(OC)c(Cl)c2O
TGI [1]: 17.7 µM and 52.1 µM
TGI [2]: 75 µM and 94.4 µM
TGI [3]: 75 µM and > 100 µM
TGI [9]: 75 µM and > 100 µM
TGI [5]: 75 µM and > 100 µM

CC#C[C@]1(O)CCC2[C@@H]3CCC4=CC(=O)CCC4=C3[C@@H](c3ccc(N(C)C)cc3)C[C@@]21C (stereo not given in full)
TGI [1]: 28.3 µM
TGI [2]: 20.8 µM
TGI [3]: 73.1 µM
TGI [9]: 98.3 µM
TGI [4]: 79.1 µM
TGI [5]: 37.1 µM
TGI [6]: 8.55 µM
TGI [7]: 28.5 µM
TGI [8]: 72.4 µM

COC(=O)Cc1c([C@@]2(C)CCCC(C)(C)C2)ccc2c1C(=O)OC2
TGI [1]: 33.3 µM
TGI [10]: 27.9 µM
TGI [6]: 8.38 µM
TGI [7]: 31.6 µM
TGI [8]: 32.3 µM

Nc1nc(NCCOCP(=O)(O)O)c([N+](=O)[O-])c(=O)[nH]1
TGI [1]: > 100 µM
TGI [10]: > 100 µM
TGI [9]: > 100 µM
TGI [5]: > 100 µM
TGI [6]: > 100 µM
TGI [7]: > 100 µM
TGI [8]: > 100 µM

CCC12CCCN(Cc3ccccc3)C1c1c(n(C)c3ccccc13)C(CO)C2 (stereo not given)
TGI [1]: 73.8 µM
TGI [10]: > 257 µM
TGI [9]: 186 µM
TGI [4]: 75.6 µM
TGI [5]: 105 µM
TGI [6]: 110 µM
TGI [7]: 73.9 µM
TGI [8]: 194 µM

CN1C(=O)CC2(C)c3cc(O)cc(Br)c3N(C)C12 (stereo not given)
TGI [1]: > 100 µM
TGI [10]: > 100 µM
TGI [9]: > 100 µM
TGI [4]: > 100 µM
TGI [6]: > 100 µM
TGI [7]: > 100 µM
TGI [8]: > 100 µM

COC(=O)[C@H](CC(C)C)NC(=O)[C@H](Cc1ccccc1)N1CC2C=CC1C2 (stereo not given in full)
TGI [1]: > 100 µM
TGI [10]: > 100 µM
TGI [9]: > 100 µM
TGI [4]: > 100 µM
TGI [6]: > 100 µM
TGI [7]: > 100 µM
TGI [8]: > 100 µM

COc1cccc(C=O)c1C(=O)c1cc(O)ccc1O
TGI [1]: > 100 µM
TGI [10]: 32.2 µM
TGI [9]: > 100 µM
TGI [4]: > 100 µM
TGI [5]: 24.1 µM
TGI [6]: 33.1 µM
TGI [7]: > 100 µM
TGI [8]: > 100 µM

COc1cc2c(cc1OC)C(C#N)N(C(=O)c1ccccc1)C=C2OC(=O)c1ccccc1 (stereo not given)
TGI [1]: > 100 µM
TGI [9]: 67.5 µM
TGI [4]: > 100 µM
TGI [5]: > 100 µM
TGI [6]: 77 µM
TGI [7]: 39 µM
TGI [8]: > 100 µM

O=C(COc1ccccc1Cl)N1N=C(c2ccccc2)CC1(O)c1ccccc1 (stereo not given)
TGI [1]: 32 µM
TGI [9]: 45.4 µM
TGI [4]: 33.5 µM
TGI [5]: 32.8 µM
TGI [6]: 42.3 µM
TGI [7]: 34.2 µM
TGI [8]: 47.7 µM

O=C1C=C(Nc2ccccc2C(=O)CC(=O)C(=O)Nc2ccc(Cl)cc2)c2ccccc2C1=O
TGI [1]: 34.7 µM
TGI [10]: 45.9 µM
TGI [9]: 43.9 µM
TGI [4]: 35.6 µM
TGI [5]: > 100 µM
TGI [6]: > 100 µM
TGI [7]: 50.2 µM
TGI [8]: 76.1 µM

Cc1cc(=O)[nH]c(CNC(=O)c2ccc3ccccc3c2)n1
TGI [1]: > 100 µM
TGI [10]: > 100 µM
TGI [9]: > 100 µM
TGI [4]: > 100 µM
TGI [5]: > 100 µM
TGI [6]: > 100 µM
TGI [7]: > 100 µM
TGI [8]: > 100 µM

CC(C)(C)N/N=C(\C(=O)Nc1cccc(Cl)c1)C1C(=O)Nc2ccccc2S1=O (stereo not given)
TGI [1]: > 100 µM
TGI [10]: > 100 µM
TGI [9]: > 100 µM
TGI [5]: > 100 µM
TGI [6]: > 100 µM
TGI [7]: > 100 µM
TGI [8]: > 100 µM

Cn1c(-c2ccc(-c3cc(-c4cccs4)c(-c4cccs4)n3C)cc2)cc(-c2cccs2)c1-c1cccs1
TGI [1]: > 100 µM
TGI [2]: > 100 µM
TGI [3]: > 100 µM
TGI [10]: > 100 µM
TGI [9]: > 100 µM
TGI [5]: > 100 µM
TGI [7]: > 100 µM
TGI [8]: > 100 µM

COC(=O)[C@H]1COC(=S)N1C(=O)[C@@H](C)[C@H](O)C(C)C
TGI [1]: > 100 µM
TGI [10]: > 100 µM
TGI [9]: > 100 µM
TGI [4]: > 100 µM
TGI [5]: > 100 µM
TGI [6]: > 100 µM
TGI [7]: > 100 µM
TGI [8]: > 100 µM

COC(=O)c1cc(NC(=O)c2cc(NC(=O)c3cc([N+](=O)[O-])n(C)c3)cn2C)cn1C
GI50 [1]: > 100 µM
TGI [1]: > 100 µM
GI50 [2]: > 100 µM
TGI [2]: > 100 µM
GI50 [10]: > 100 µM
TGI [10]: > 100 µM
GI50 [9]: 34.2 µM
TGI [9]: > 100 µM
GI50 [4]: 30.9 µM
TGI [4]: > 100 µM
GI50 [5]: 39.3 µM
TGI [5]: > 100 µM
GI50 [6]: 13.2 µM
TGI [6]: 85.2 µM
GI50 [7]: 56.1 µM
TGI [7]: > 100 µM
GI50 [8]: 45.3 µM
TGI [8]: > 100 µM
